Reference: ChEMBL document CHEMBL4613264, “Design, Synthesis, and Biological Evaluation of New Peripheral 5HT2A Antagonists for Nonalcoholic Fatty Liver Disease” (J Med Chem, 2020)

What was measured:
[1] = molecular target: 5-hydroxytryptamine receptor 2A (Homo sapiens, UniProt P28223); experiment: Antagonist activity at 5HT2A receptor (unknown origin) expressed in HEK293 cells assessed as inhibition of serotonin hydrochloride-induced calcium flux preincubated for 1 hr followed by serotonin hydrochloride addition by calcium 6 dye based FLIPR assay; assay type: functional, cell-based
Sequence of 5-hydroxytryptamine receptor 2A (P28223 whole entry): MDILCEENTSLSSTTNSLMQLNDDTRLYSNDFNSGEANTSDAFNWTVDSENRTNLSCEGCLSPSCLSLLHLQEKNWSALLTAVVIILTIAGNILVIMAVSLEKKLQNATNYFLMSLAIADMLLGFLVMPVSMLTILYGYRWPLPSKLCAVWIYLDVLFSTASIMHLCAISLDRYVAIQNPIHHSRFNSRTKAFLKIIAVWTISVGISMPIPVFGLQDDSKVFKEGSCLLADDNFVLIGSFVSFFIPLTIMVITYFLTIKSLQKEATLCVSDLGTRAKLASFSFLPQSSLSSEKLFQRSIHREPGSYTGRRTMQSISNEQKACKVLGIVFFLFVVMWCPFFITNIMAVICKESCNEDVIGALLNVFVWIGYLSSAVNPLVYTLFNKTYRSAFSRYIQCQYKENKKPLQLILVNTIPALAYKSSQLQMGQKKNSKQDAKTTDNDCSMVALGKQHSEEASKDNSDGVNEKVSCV

[2] = Plasma concentration in ICR mouse at 5 mg/kg, iv measured after 0.5 hrs by LC-MS/MS analysis; assay type: ADME, organism-based
[3] = Ratio of drug level in brain to plasma of ICR mouse at 5 mg/kg, iv measured after 0.5 hrs by LC-MS/MS analysis; assay type: ADME, organism-based; details: read-out: BPR
[4] = Drug level in ICR mouse brain at 5 mg/kg, iv measured after 0.5 hrs by LC-MS/MS analysis; assay type: ADME, organism-based; details: read-out: Drug uptake
[5] = Permeability of the compound by PAMPA; assay type: ADME; details: read-out: permeability
[6] = Stability in human liver microsomes assessed as parent compound remaining measured after 30 mins; assay type: ADME, Microsome; details: read-out: Stability
in vitro = details: rat, liver microsomes
Description: Stability in rat liver microsomes assessed as parent compound remaining measured after 30 mins

Question: With CC(C)COc1ccc(CNC(=O)N(Cc2ccc(F)cc2)C2CCN(C(=O)CCC(=O)O)CC2)cc1 as the compound, how does the IC50 [1] read?
Answer: 317 nM

Question: Which IC50 [1] does the source give for CN1CCC(N(Cc2ccc(F)cc2)C(=O)NCc2ccc(OCC(O)CN3CCC(c4noc5cc(F)ccc45)CC3)cc2)CC1 (stereo not given) here?
Answer: 0.39 nM

Question: And the concentration at 0.5 h [2]?
Answer: 455 ng/mL

Question: What about the Kp at 0.5 h [3] of the same compound?
Answer: 1.63

Question: And the concentration at 0.5 h [4]?
Answer: 741 ng/g

Question: And the Papp [5]?
Answer: 4.79 ×10⁻⁶ cm/s

Question: Which remaining at 0.5 h [6] does the source give for O=C1CC2(CCCC2)CC(=O)N1CCCCN1CCN(c2ncccn2)CC1 [BUSPIRONE] here?
Answer: 4%

Question: And the remaining at 0.5 h (in vitro)?
Answer: 15%

Question: With CC(C)COc1ccc(CNC(=O)N(Cc2ccc(F)cc2)C2CCN(S(C)(=O)=O)CC2)cc1 as the compound, how does the IC50 [1] read?
Answer: 2020 nM

Question: For CN1CCC(N(Cc2ccc(F)cc2)C(=O)NCc2ccc(OCC(O)CN3CCN(c4nsc5ccccc45)CC3)cc2)CC1 (stereo not given), which IC50 [1] is on record?
Answer: 0.87 nM
